Source: patent publication US12043621B2, “Small molecule inhibitors of Interleukin-4” (Trustees of Boston University, priority 2020, dated 2024)
Read-outs that look alike come from different tables or passages of the source.

Columns and labels:
[1] = test system: HEK-Blue IL-4/IL-13 cells; assay: HEK-Blue IL-4/IL-13 control: compounds alone without IL-4 (SEAP); type: cell-based; details: cells with 100 μM compound, no IL-4
Protocol: […] HEK-Blue IL-4/IL-13 cells were trypsinized, spun down, and resuspended in DMEM with 10% heat-inactivated FBS, and 100 U/mL-100 μg/mL Pen-Strep at a concentration of 3.125E5/mL. 160 μL of the cell suspension was added to each well of a 96 well plate, avoiding the edges of the plate and equilibrated in an incubator for 1 hour. After 2 hours, 40 μL of the small molecule/IL-4 solution was added to each well. Each measurement was performed in triplicate. Cells were incubated for 20 hours at 37° C./5% CO2. Quanti-Blue was prepared according to manufacture and 160 μL added to each well of a 96 well plate, avoiding edges. 40 μL of cell supernatant was added to each well and then incubated for 3 hours at 37° C. The optical density was then read at 650 nm with a Molecular Devices SpectraMax M5 Microplate Reader. Data was plotted and analyzed in GraphPad Prism 8.

[2] = test system: >25 other proteins; assay: SMM binding signatures versus >25 unrelated proteins; details: compared to SMM binding signatures for >25 other proteins
Source text: [formula] Where SNRi is the SNR value for a given feature, Mdn(SNR) is the median of the SNR values for all features in the subarray, and the MAD(SNR) is the […] absolute deviation of the SNR values for all features in the subarray. Assay positives with an average robust Z score greater than 1.645 (alpha=0.05) on duplicate slides were compared to both a counter screen for the detection antibody and a database representing >25 unique targets screened by SMM against the same chemical library to filter nonspecific binders. DSF

[3] = molecular target: T1, IL-4 (Homo sapiens, UniProt P05112); assay: HEK-Blue IL-4/IL-13 cell-based reporter (SEAP) IL-4 inhibition assay; details: for Activity at 1 uM / Activity at 10 uM: percent activity in HEK-Blue IL-4/IL-13, in %; for reduction of IL-4 activity: at 50 μM, normalized to IL-4 with vehicle
T1 construct: purchased Acros Biosystems IL4-H4218; host or cells: HEK-293
T1 sequence (P05112 25-153): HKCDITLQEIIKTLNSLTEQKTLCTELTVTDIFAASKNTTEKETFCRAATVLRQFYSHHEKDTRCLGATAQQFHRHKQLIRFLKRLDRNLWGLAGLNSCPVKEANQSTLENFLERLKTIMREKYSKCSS
Protocol: HEK-Blue IL-4/IL-13 cells were purchased from Invivogen and maintained in DMEM complete with 10% fetal bovine serum, 10 μg/ml of blasticidin and 100 μg/ml of Zeocin, 100 μg/mL Normocin, and 100 U/mL-100 μg/mL Pen-Strep. Cells used for assays were between passages 12 and 18. […] HEK-Blue IL-4/IL-13 cells were trypsinized, spun down, and resuspended in DMEM with 10% heat-inactivated FBS, and 100 U/mL-100 μg/mL Pen-Strep at a concentration of 3.125E5/mL. 160 μL of the cell suspension was added to each well of a 96 well plate, avoiding the edges of the plate and equilibrated in an incubator for 1 hour. After 2 hours, 40 μL of the small molecule/IL-4 solution was added to each well. Each measurement performed in quadruplicate. Cells were incubated for 20 hours at 37° C./5% CO2. Quanti-Blue was prepared according to manufacture and 160 μL added to each well of a 96 well plate, avoiding edges. 40 μL of cell supernatant was added to each well and then incubated for 3 hours at 37° C. The optical density was then read at 650 nm with a Molecular Devices SpectraMax M5 Microplate Reader. Data was plotted and analyzed in GraphPad Prism 8.
HEK-Blue IL-4/IL-13 cells were purchased from Invivogen and maintained in DMEM complete with 10% fetal bovine serum, 10 μg/ml of blasticidin and 100 μg/ml of Zeocin, 100 μg/mL Normocin, and 100 U/mL-100 μg/mL Pen-Strep. Cells used for assays were between passages 12 and 18. Prior to screening small molecules, the SEAP production induced by IL-4 alone was tested in the cells (FIG. 13) and determined to be 0.3 ng/mL. The EC25 for the IL-4 induced SEAP production (0.1 ng/mL final well concentration) was chosen for running small molecule inhibition assays.
For screening small molecules, 25 µL of each molecule (FIG. 9) in DMEM with 4% DMSO was added to 25 μL of 1 ng/ml IL-4 in DMEM and incubated for 2 hours at 37° C. HEK-Blue IL-4/IL-13 cells were trypsinized, spun down, and resuspended in DMEM with 10% heat-inactivated FBS, and 100 U/mL-100 μg/mL Pen-Strep at a concentration of 3.125E5/mL. 160 μL of the cell suspension was added to each well of a 96 well plate, avoiding the edges of the plate and equilibrated in an incubator for 1 hour. After 2 hours, 40 μL of the small molecule/IL-4 solution was added to each well. Each measurement was performed in […]. Cells were incubated for 20 hours at 37° C./5% CO2. Quanti-Blue was prepared according to manufacture and 160 μL added to each well of a 96 well plate, avoiding edges. 40 μL of cell supernatant was added to each well and then incubated for 3 hours at 37° C. The optical density was then read at 650 nm with a Molecular Devices SpectraMax M5 Microplate Reader. Data was plotted and analyzed in GraphPad Prism 8.
HEK-Blue IL-4/IL-13 cells used to screen analogs of compound 52 from ACS Chemical Biology paper (also referred to herein as D9). Assay was run as described in Examples 2 and 3. All compounds were screened at 10 μM, 1 μM, and 250 nM in quadruplicate. The results are depicted in FIGS. 17-21.

[4] = Example 2, quadruplicate, read-out: EC50 of IL-4 inhibition in HEK-Blue IL-4/IL-13 cells
[5] = Example 3, triplicate, read-out: EC50 of IL-4 inhibition in HEK-Blue IL-4/IL-13 cells

How did the Abs650 [1] turn out when `N#Cc1c(-c2ccc(O)c(O)c2)cc(-c2ccc(F)cc2)nc1N` [Compound 1, 2-amino-4-(3,4-dihydroxyphenyl)-6-(4-fluorophenyl)-nicotinonitrile] was run?
The Abs650 was 0.0955 ± 0.0072.

What about the SMM binding selectivity [2] of the same compound?
Its SMM binding selectivity is “only bound to IL-4”.

What about the “Activity at 1 uM” value [3] of the same compound?
The value was 71.73.

And the “Activity at 10 uM” value [3]?
The value was 2.405.

What about the EC50 [3, 4] of the same compound?
The EC50 was 45.6 µM.

And the EC50 [3, 5]?
The EC50 was 40 µM.

What about the EC50 ([3]; Table 3, read-out: EC50) of the same compound?
The EC50 was 1.56 µM.

And the “reduction of IL-4 activity” value [3]?
Its value is 88.6%.

How did the “Activity at 1 uM” value [3] turn out when `N#Cc1c(-c2ccc(O)c(O)c2)cc(-c2ccc(F)cc2)nc1N` [Compound 2] was run?
Its value is 64.46.

What about the “Activity at 10 uM” value [3] of the same compound?
The value was 4.2.

With `N#Cc1c(-c2cc(O)c(O)c(O)c2)cc(-c2ccc(F)cc2)nc1N` [Compound 5] as the compound, how does the “Activity at 1 uM” value [3] read?
The value was 84.76.

And the “Activity at 10 uM” value [3]?
Its value is 93.86.

How did the “Activity at 1 uM” value [3] turn out when `Cc1ccc(-c2cc(-c3ccc(F)cc3)nc(N)c2C#N)o1` [Compound 9] was run?
The value was 77.98.

What about the “Activity at 10 uM” value [3] of the same compound?
The value was 66.06.

`Cc1ccc(-c2cc(-c3ccc(F)cc3)nc(N)c2C#N)s1` [Compound 11] was tested. Which “Activity at 1 uM” value [3] did it give?
Its value is 69.98.

And the “Activity at 10 uM” value [3]?
The value was 62.48.

How did the “Activity at 1 uM” value [3] turn out when `N#Cc1c(-c2ccccc2O)cc(-c2ccc(F)cc2)nc1N` [Compound 15] was run?
Its value is 51.3773.

What about the “Activity at 10 uM” value [3] of the same compound?
Its value is 1.218.

For `N#Cc1c(-c2ccc(O)cc2)cc(-c2ccc(F)cc2)nc1N` [Compound 17], which “Activity at 1 uM” value [3] is on record?
Its value is 99.0184.

And the “Activity at 10 uM” value [3]?
The value was 52.77.

Which results are given for `COc1ccc(-c2cc(-c3cccnc3)nc(N)c2C#N)cc1O` [Compound 25]?
Abs650 [1]: 0.0648 ± 0.0012; SMM binding selectivity [2]: only bound to IL-4; EC50 [3, 4]: 21.7 µM; EC50 [3, 5]: 7.6 µM; reduction of IL-4 activity [3]: 84.3%

Which “Activity at 1 uM” value [3] does the source give for `COc1ccc(-c2cc(-c3ccc(OC)c(O)c3)c(C#N)c(N)n2)cc1` [Compound 30] here?
The value was 64.45.

And the “Activity at 10 uM” value [3]?
Its value is 28.76.

What about the EC50 ([3]; Table 3, read-out: EC50) of the same compound?
Its EC50 is 3.88 µM.

How did the “Activity at 1 uM” value [3] turn out when `COc1ccc(-c2cc(-c3ccc(Cl)c(Cl)c3)c(C#N)c(=O)[nH]2)cc1` [Compound 32] was run?
The value was 51.3.

What about the “Activity at 10 uM” value [3] of the same compound?
The value was 55.85.

Which results are given for `COc1ccc(-c2cc(-c3ccccc3)c(C#N)c(=O)[nH]2)cc1` [Compound 34]?
Activity at 1 uM [3]: 73.09; Activity at 10 uM [3]: 72.43

`COc1ccc(-c2cc(C3CCCOC3)c(C#N)c(=O)[nH]2)cc1` (stereo not shown) [Compound 36] was tested. Which “Activity at 1 uM” value [3] did it give?
The value was 71.59.

What about the “Activity at 10 uM” value [3] of the same compound?
Its value is 68.36.

`COc1ccc(-c2cc(-c3ccc(C)o3)c(C#N)c(=O)[nH]2)cc1` [Compound 37] was tested. Which “Activity at 1 uM” value [3] did it give?
Its value is 89.04.

And the “Activity at 10 uM” value [3]?
Its value is 99.52.

What does the source list for `COc1ccc(-c2cc(-c3ccc4ccccc4c3)c(C#N)c(=O)[nH]2)cc1` [Compound 41]?
Activity at 1 uM [3]: 62.288; Activity at 10 uM [3]: 48.23

For `COc1ccc(-c2cc(-c3ccccc3O)c(C#N)c(=O)[nH]2)cc1` [Compound 42], which “Activity at 1 uM” value [3] is on record?
The value was 33.675.

And the “Activity at 10 uM” value [3]?
The value was −0.3167.

How did the “Activity at 1 uM” value [3] turn out when `COc1ccc(-c2cc(-c3cccc(O)c3)c(C#N)c(=O)[nH]2)cc1` [Compound 43] was run?
The value was 112.2.

What about the “Activity at 10 uM” value [3] of the same compound?
Its value is 35.73.

What does the source list for `COc1ccc(-c2cc(-c3ccc(O)cc3)c(C#N)c(=O)[nH]2)cc1` [Compound 44]?
Activity at 1 uM [3]: 33.62; Activity at 10 uM [3]: 39.28

Which results are given for `COc1ccc(-c2cc(-c3ccc(O)c(OC)c3)c(C#N)c(=O)[nH]2)cc1` [Compound 45]?
Activity at 1 uM [3]: 80.34; Activity at 10 uM [3]: −2.843

Which results are given for `COc1ccc(-c2cc(-c3ccc(OC)c(O)c3)c(C#N)c(=O)[nH]2)cc1` [Compound 46]?
Activity at 1 uM [3]: 17.94; Activity at 10 uM [3]: 13.16

How did the “Activity at 1 uM” value [3] turn out when `COc1ccc(-c2cc(-c3ccc(-c4ccccc4)cc3)[nH]c(=O)c2C#N)cc1O` [Compound 53] was run?
Its value is 17.656.

What about the “Activity at 10 uM” value [3] of the same compound?
Its value is 30.26.

What does the source list for `N#Cc1c(-c2ccc(O)c(O)c2)cc(-c2ccc(N3CCCCC3)cc2)[nH]c1=O` [Compound 56]?
Activity at 1 uM [3]: 81.52; Activity at 10 uM [3]: 11.84

How did the “Activity at 1 uM” value [3] turn out when `Cn1ccc(-c2cc(-c3cccc(O)c3)c(C#N)c(=O)[nH]2)c1` [Compound 57] was run?
Its value is 94.4121.

What about the “Activity at 10 uM” value [3] of the same compound?
Its value is 75.91.

What does the source list for `Cc1cc(-c2cc(-c3cccc(O)c3)c(C#N)c(=O)[nH]2)c(C)s1` [Compound 58]?
Activity at 1 uM [3]: 85.76; Activity at 10 uM [3]: 39.79

How did the “Activity at 1 uM” value [3] turn out when `N#Cc1c(-c2cccc(O)c2)cc(-c2cc(F)c(F)c(F)c2)[nH]c1=O` [Compound 59] was run?
Its value is 88.75.

What about the “Activity at 10 uM” value [3] of the same compound?
Its value is 32.37.

How did the “Activity at 1 uM” value [3] turn out when `COc1nc(-c2ccccc2)cc(-c2ccccc2)c1C#N` [Compound 61] was run?
Its value is 96.92.

And the “Activity at 10 uM” value [3]?
Its value is 39.64.

Which results are given for `COc1ccc(-c2cc(-c3ccccc3)nc(Br)c2C#N)cc1` [Compound 62]?
Activity at 1 uM [3]: 96.31; Activity at 10 uM [3]: 38.63

How did the “Activity at 1 uM” value [3] turn out when `N#Cc1c(-c2ccccc2)cc(-c2ccccc2)nc1N1CCCCC1` [Compound 63] was run?
Its value is 95.46.

And the “Activity at 10 uM” value [3]?
The value was 40.44.

Which “Activity at 1 uM” value [3] does the source give for `COc1ccc(-c2cc(-c3ccccc3)c(C#N)c(S)n2)cc1` [Compound 64] here?
The value was 17.08.

What about the “Activity at 10 uM” value [3] of the same compound?
The value was 16.53.

Which results are given for `COc1ccc(-c2cc(-c3ccccc3)c(C#N)c(SC)n2)cc1` [Compound 65]?
Activity at 1 uM [3]: 95.33; Activity at 10 uM [3]: 20.54

For `COc1ccc(-c2cc(-c3ccc(O)cc3)c(C#N)c(SC)n2)c(OC)c1` [Compound 66], which “Activity at 1 uM” value [3] is on record?
The value was 87.86.

And the “Activity at 10 uM” value [3]?
Its value is 21.21.
